Measured values reported in patent US8450327B2, “CGRP antagonists” (Boehringer Ingelheim International GmbH, priority 2007, dated 2013).

Biological target: T1, human CGRP receptor (Homo sapiens, UniProt O60894+Q16602)
T1 construct: SK-N-MC cells are cultivated in “Dulbecco's modified Eagle medium”; endogenous in cells; host or cells: SK-N-MC cells (membrane homogenate)
Test: Binding studies with SK-N-MC cells (expressing the human CGRP receptor), 125I-CGRP displacement on membranes
Settings: SK-N-MC cell membranes, 50 pM 125I-iodotyrosyl-CGRP, 180 min at ambient temperature
Description: A. Binding Studies with SK-N-MC Cells (Expressing the Human CGRP Receptor)
SK-N-MC cells are cultivated in “Dulbecco's modified Eagle medium”. The medium is removed from confluent cultures. The cells are washed twice with PBS buffer (Gibco 041-04190 M), detached by the addition of PBS buffer mixed with 0.02% EDTA, and isolated by centrifuging. After resuspension in 20 ml of “Balanced Salts Solution” [BSS (in mM): NaCl 120, KCl 5.4, NaHCO3 16.2, MgSO4 0.8, NaHPO4 1.0, CaCl2 1.8, D-glucose 5.5, HEPES 30, pH 7.40] the cells are centrifuged twice at 100×g and resuspended in BSS. After the number of cells has been determined, the cells are homogenised using an Ultra-Turrax and centrifuged for 10 minutes at 3000×g. […]
After thawing, the homogenised product is diluted 1:10 with assay buffer (50 mM Tris, 150 mM NaCl, 5 mM MgCl2, 1 mM EDTA, pH 7.40) and homogenised for 30 seconds with an Ultra-Turrax. […] The protein-bound radioactivity is measured using a gamma counter. Non-specific binding is defined as the bound radioactivity after the presence of 1 μM human CGRP-alpha during incubation.
The concentration binding curves are analysed using computer-aided non-linear curve fitting.

T1 sequence (Q16602 23-461): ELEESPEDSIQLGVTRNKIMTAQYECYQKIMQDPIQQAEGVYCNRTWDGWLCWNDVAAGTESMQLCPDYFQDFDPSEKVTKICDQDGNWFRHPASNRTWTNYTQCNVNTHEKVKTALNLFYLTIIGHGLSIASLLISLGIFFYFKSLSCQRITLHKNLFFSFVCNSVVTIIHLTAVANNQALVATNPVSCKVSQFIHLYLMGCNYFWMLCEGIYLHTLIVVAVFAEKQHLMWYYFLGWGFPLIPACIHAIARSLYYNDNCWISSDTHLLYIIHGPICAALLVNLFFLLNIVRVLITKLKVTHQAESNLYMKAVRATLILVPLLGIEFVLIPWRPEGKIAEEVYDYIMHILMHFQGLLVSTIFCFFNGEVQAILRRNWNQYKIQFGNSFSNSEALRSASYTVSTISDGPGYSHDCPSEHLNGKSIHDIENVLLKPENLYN
T1 sequence (O60894 27-148): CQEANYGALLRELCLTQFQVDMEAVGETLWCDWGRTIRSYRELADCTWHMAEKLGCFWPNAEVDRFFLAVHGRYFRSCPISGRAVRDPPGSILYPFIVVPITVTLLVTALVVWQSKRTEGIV

Row | Ki | SMILES
1 | 0.006 µM | Cc1cc(C(=O)c2cc(N3CCC4(CC3)NC(=O)Nc3ccccc34)ncn2)cc2oc(=O)[nH]c12 [Example 1, 4-methyl-6-(6-(2′-oxo-2′,3′-dihydro-1′H-spiro[piperidin-4,4′-quinazolin]-1-yl)pyrimidine-4-carbonyl)benzo[d]oxazol-2(3H)-one]
2 | 0.027 µM | Cc1cc(C(=O)c2cc(Nc3ccc4c(c3)CC3(C4)C(=O)Nc4ncccc43)ncn2)cc2oc(=O)[nH]c12 (centres unmarked) [Example 2, 4-methyl-6-(6-(2′-oxo-1,1′,2′,3-tetrahydrospiro[inden-2,3′-pyrrolo[2,3-b]pyridin]-5-ylamino)pyrimidine-4-carbonyl)benzo[d]oxazol-2(3H)-one]
